Key:
Type in all cases: cell-based, human
Fibroblasts = assay: Cell migration (scratch) assay; conditions: IC50 concentrations, 24 h, normalized against DMSO (100%)
Experimental: Fibroblasts were seeded in 24-well plates at a density of 4 × 10^5 cells/mL and grown in the same conditions as described previously until a confluent monolayer was obtained. […] Images of the Fibroblasts were captured right after the exposure (0 h) to the complexes and after 24 h of incubation at 37 °C and 5% (v/v) CO2 in a humidified atmosphere, using CytoSMART Lux2 Live Cell Imager (Axion biosystems, USA) and Ti–U Eclipse Inverted microscope (Nikon Instruments, Japan). Images were analyzed with the ImageJ MRO Wound Healing Tool or with the scratch assay measurement of the CytoSMART cloud portal for the Lux system.

A2780 cell line [1] = assay: Internalization of cobalt by ICP-AES; conditions: A2780, 10× IC50, ICP-AES, cellular fraction
Experimental: Internalization of the cobalt complexes was evaluated by ICP-AES in the A2780 cell line. For this, the A2780 cell line was seeded in 25 cm^2 T-flasks at a density of 5 × 10^5 cells/T-flask and incubated for 24 h at 37 °C with 5% (v/v) CO2. […] Cells were then incubated for 3, 6, and 12 h at the same conditions as before and for 12 h at 4 °C. The culture media was recovered to a new tube (supernatant fraction) and cells were detached from the T-flask with 2 mL of TripLE Express (TE) (Gibco by life technologies) and centrifuged at 750 × g for 5 min. Then, fresh aqua regia was added to the supernatant tube and to the cellular fractions and incubated overnight at room temperature (RT) in the hood fume. Samples were delivered to Laboratório de Análises/LAQV and the levels of cobalt were evaluated by ICP-AES.

A2780 cells [2] = assay: Cell fractioning and ICP-AES (cytosolic, mitochondrial, nuclear fractions); conditions: A2780, 12 h, 10× IC50, 37 °C
Experimental: Internalization of the complexes in different cellular factions (cytosolic, mitochondrial, or nuclear) of A2780 cells was evaluated by using a cell fractionation kit (Abcam). Cells were seeded in a 24-well plate at a density of 2 × 10^5 cells/mL and incubated for 24 h at 37 °C with 5% (v/v) CO2. […] Cells were then incubated for 12 h at the same conditions as before. The culture media was recovered to a new tube (supernatant fraction) and cells were detached from the T-flask with 250 μL of TE (Gibco by life technologies). Then, we followed the instructions provided by the manufacturer of the cell fractionation kit (Abcam). At the end of the procedure, fresh aqua regia was added to the supernatant tube and to the cellular fractions and incubated overnight at room temperature (RT) in the hood fume. Samples were delivered to Laboratório de Análises/LAQV and the levels of cobalt were evaluated by ICP-AES.

A2780 cell line [3] = assay: Mitochondrial membrane potential (ΔΨM), JC-1 flow cytometry; conditions: A2780, IC50, 48 h, JC-1 red/green ratio vs DMSO
Experimental: ΔΨM was evaluated in the A2780 cell line using the JC-1 Mitochondrial Membrane Potential Assay Kit (Abnova, Taipei, Taiwan). Cells were seeded at a density of 2 × 10^5 cells/well in 6-well plates and incubated for 24 h. […] After an incubation of 48 h, the cells were washed with PBS 1×, detached with TE, and incubated with JC-1 in RPMI medium without phenol red + 5% (v/v) FBS for 20 min at 37 °C. The cells were then resuspended in the same medium and the ΔΨM was evaluated with the Attune acoustic focusing flow cytometer (ThermoFisher Scientific) and respective software.

A2780 cells [4] = assay: Cell cycle progression (PI flow cytometry, double thymidine block); conditions: A2780, 24 h; complexes at IC50, DOX 0.4 μM, cisplatin 5 μM
Experimental: The interference of the copper complexes 2–4 in the cell cycle progression was evaluated in A2780 cells, seeded in 6-weel plates, with a density of 2 × 10^5 cells/well, and incubated for 8 h at the same conditions as described above. After that incubation time, the cells were synchronized in early S-phase with a 2 mM thymidine solution (Sigma, St. Louis, USA) for a 16 h period. Media with thymidine was replaced by fresh media and, after 8 h, another 2 mM thymidine solution was added to the wells (double thymidine block) and incubated for 16 h. […] Cells were incubated for 9, 18, or 24 h, and, at each hour, the cells were treated with TE and centrifuges at 650 × g for 5 min at 4 °C. The pellet was resuspended in PBS 1× and centrifuged at 3000 × g for 5 min at 4 °C. Later, the pellet was resuspended in 100 μL of PBS 1×, and 1 mL of a solution of 80% (v/v) ethanol was gently added to the cells. Cells were stored at 4 °C for at least 12 h and then centrifuged for 10 min at 7500 × g at 4 °C, treated with 250 μL of 50 μg/mL RNase A, and incubated for 30 min at 37 °C. After incubation, 100 μL of PI (25 μg/mL) was added to the cells as well as 650 μL of PBS 1×. The DNA content was evaluated on an Attune Acoustic Focusing Flow Cytometer (ThermoFisher Scientific) and results were analyzed by the respective software.

ROS in A2780 cell line = assay: Production of reactive oxygen species (H2DCF-DA flow cytometry); conditions: A2780, IC50, 48 h, vs DMSO
Experimental: The production of ROS was evaluated in the A2780 cell line, seeded in 6-well plates at a density of 2 × 10^5 cells/well, and incubated for 24 h at the same conditions as described above. […] Later, cells were washed with PBS 1×, detached from the wells with TE, and incubated with […] of 2′,7′-dichlorodihydrofluorescein diacetate (H2DCF-DA) (ThermoFisher Scientific, Waltham, MA, USA) in PBS 1× for 20 min at 37 °C. The data were obtained through an Attune acoustic focusing flow cytometer (ThermoFisher Scientific) and respective software.

Cc1ccnc(-c2cc(C)ccn2)c1.O=S(=O)([O-])C(F)(F)F.O=S(=O)([O-])C(F)(F)F.[Co+3].c1cc[cH-]c1.c1ccc(P(c2ccccc2)c2ccccc2)cc1 [Complex 2, [Co(η^5-C5H5)(PPh3)(Me2bipy)][(CF3SO3)2]]
cellular remission (Fibroblasts): 80.2% | Percentage of internalization, 3 h at 37 °C (A2780 cell line [1]): 40.6% ± 2.0 | Percentage of internalization, 6 h at 37 °C (A2780 cell line [1]): 50.7% ± 3.3 | Percentage of internalization, 12 h at 37 °C (A2780 cell line [1]): 92.6% ± 6.5 | Percentage of internalization in cytosol (A2780 cells [2]): 36.9% ± 10.4 | Percentage of internalization in mitochondria (A2780 cells [2]): 17.6% ± 6.5 | Percentage of internalization in nucleus (A2780 cells [2]): 38.1% ± 7.4 | mitochondrial membrane potential (ΔΨM) change (A2780 cell line [3]): low (without statistical significance) ΔΨM | % of cells in the G2/M phase (A2780 cells [4]): 34.1% | ROS production relative to control (ROS in A2780 cell line): only a slight increase in the % of ROS

O=S(=O)([O-])C(F)(F)F.O=S(=O)([O-])C(F)(F)F.[Co+3].c1cc[cH-]c1.c1ccc(P(c2ccccc2)c2ccccc2)cc1.c1cnc2c(c1)ccc1cccnc12 [Complex 3, [Co(η^5-C5H5)(PPh3)(phen)][(CF3SO3)2]]
cellular remission (Fibroblasts): 76.9% | Percentage of internalization, 3 h at 37 °C (A2780 cell line [1]): 49.7% ± 3.5 | Percentage of internalization, 6 h at 37 °C (A2780 cell line [1]): 31.9% ± 10.2 | Percentage of internalization, 12 h at 37 °C (A2780 cell line [1]): 76.9% ± 15.9 | Percentage of internalization in cytosol (A2780 cells [2]): 30.6% ± 2.7 | Percentage of internalization in mitochondria (A2780 cells [2]): 26.0% ± 11.4 | Percentage of internalization in nucleus (A2780 cells [2]): 20.3% ± 5.8 | mitochondrial membrane potential (ΔΨM) change (A2780 cell line [3]): low (without statistical significance) ΔΨM | % of cells in the G2/M phase (A2780 cells [4]): 20.7% | ROS production relative to control (ROS in A2780 cell line): 1.7 ×

Nc1cc2cccnc2c2ncccc12.O=S(=O)([O-])C(F)(F)F.O=S(=O)([O-])C(F)(F)F.[Co+3].c1cc[cH-]c1.c1ccc(P(c2ccccc2)c2ccccc2)cc1 [Complex 4, [CoCp(PPh3)(NH2phen)][(CF3SO3)2]]
cellular remission (Fibroblasts): 78.1% | Percentage of internalization, 3 h at 37 °C (A2780 cell line [1]): 33.7% ± 2.7 | Percentage of internalization, 6 h at 37 °C (A2780 cell line [1]): 43.6% ± 5.8 | Percentage of internalization, 12 h at 37 °C (A2780 cell line [1]): 89.3% ± 10.6 | Percentage of internalization in cytosol (A2780 cells [2]): 66.4% ± 14.7 | Percentage of internalization in mitochondria (A2780 cells [2]): 4.5% ± 2.1 | Percentage of internalization in nucleus (A2780 cells [2]): 18.4% ± 4.9 | mitochondrial membrane potential (ΔΨM) change (A2780 cell line [3]): an increase in ΔΨM was observed | % of cells in the G2/M phase (A2780 cells [4]): 28% | ROS production relative to control (ROS in A2780 cell line): 1.9 ×
